In patent US20080103199A1, “TREATMENT OF PERVASIVE DEVELOPMENTAL DISORDERS” (priority 2006, published 2008):

What was measured:
dominant rats = test: Reduction of Dominant Behavior Model (RDBM) of mania, dominant-submissive rat food competition test; format: in vivo, Sprague-Dawley rats; settings: 5 weeks, dominant rat treated
Excerpt: In this study, the effects of COMPOUND #7 on dominant or submissive behavior in pairs of rats competing for food are examined. It has been shown that anti-manic drugs, including anticonvulsants, decrease dominance and antidepressant drugs reduce submissiveness. This model uses dominant behavior as a model of mania and submissive behavior as a model of depression. The dominance and submissiveness is defined in a competition test and measured as the relative success of two food-restricted rats to gain access to a feeder. Rats are randomly paired and placed in an apparatus allowing them to compete for a food reward. The dominant-submissive relationship develops over a 2-week period. The submissive or dominant animals in pairs selected after 2 weeks of training were treated orally […] (b.i.d.) with COMPOUND #7 at 3 or 30 mg/kg for 5 weeks. […]
The objective of this study was to determine if COMPOUND #7 is active in the Reduction of Submissive Behavior Model (RSBM) of depression and the Reduction of Dominant Behavior Model (RDBM) of mania. […] The endpoints measured were the development of a significant reduction of submissive or dominant behavior and its time of onset. […]
(§1) The test involves placing each member of a pair in opposite chambers of the testing apparatus. […] The test is conducted once a day over a 5-minute period and the time spent on the feeder by each animal is recorded. […]

submissive rats = test: Reduction of Submissive Behavior Model (RSBM) of depression, dominant-submissive rat food competition test; format: in vivo, Sprague-Dawley rats; settings: 5 weeks, submissive rat treated
Excerpt: In this study, the effects of COMPOUND #7 on dominant or submissive behavior in pairs of rats competing for food are examined. It has been shown that anti-manic drugs, including anticonvulsants, decrease dominance and antidepressant drugs reduce submissiveness. This model uses dominant behavior as a model of mania and submissive behavior as a model of depression. The dominance and submissiveness is defined in a competition test and measured as the relative success of two food-restricted rats to gain access to a feeder. Rats are randomly paired and placed in an apparatus allowing them to compete for a food reward. The dominant-submissive relationship develops over a 2-week period. The submissive or dominant animals in pairs selected after 2 weeks of training were treated orally […] (b.i.d.) with COMPOUND #7 at 3 or 30 mg/kg for 5 weeks. The partner of the drug-treated animal was treated with vehicle.
The objective of this study was to determine if COMPOUND #7 is active in the Reduction of Submissive Behavior Model (RSBM) of depression and the Reduction of Dominant Behavior Model (RDBM) of mania. Measurements were made at two doses (3 and 30 mg/kg) after oral twice a day (b.i.d.) administration. The effect of the drug in the RSBM was compared to the effect of fluoxetine (10 mg/kg) and vehicle (0.5% methylcellulose). The effect of the drug in the RDBM was compared with the effect of lithium (100 mg/kg) and vehicle (0.5% methylcellulose). The endpoints measured were the development of a significant reduction of submissive or dominant behavior and its time of onset.
The DSR developed by two rats competing for food uses the apparatus in FIG. 1.
In the experiments described in this report Sprague-Dawley rats weighing 160 to 180 g were used. Testing for the development of a DSR between paired rats begins with the random assignment of rats into pairs. […]
as §1

[1] = test system: Crl:CD-1(ICR)BR albino mice; test: Isolation-induced aggression model in pairs of mice; format: in vivo
Protocol: The effects of test compound on the aggressive behavior of Crl:CD-1(ICR)BR albino mice were evaluated using the paradigm of isolation-induced aggression.
Male Crl:CD-1(ICR)BR albino mice, fasted overnight, were individually housed for 5 weeks in plastic cages on wood-chip bedding. Subsequently, they were paired for 1 minute daily for several days by placing one individually housed mouse (intruder) into the resident cage of another individually housed mouse (resident). The 1-minute pairing of intruder and resident mouse elicits aggressive behavior. Pairs of mice showing consistent aggressive behavior when paired for 1 minute, during several days were selected as subjects for drug testing.
Test compound (10 to 40 mg/kg p.o.) or the vehicle (methocel; aqueous 0.5%, w/v, hydroxypropyl methylcellulose solution) was administered (10 mL/kg) to the resident and intruder mouse. One and 4 hours after dosing, the mice were paired and the onset of fighting was recorded. […] The duration of fighting during a 1-minute test period was recorded. Mice were re-used in this procedure after several days to a week to allow metabolism and elimination of test compounds. The mice weighed 32 to 49 g at the time of testing and were fasted overnight before dosing. Mice were euthanized with CO2 if they were sick or injured.
Results were expressed as the median onset of fighting and median duration of fighting in vehicle and drug-treated groups. The statistical significance of an increase in the median onset or a reduction in the median duration of fighting in pairs of mice given test compound or its vehicle 1 and 4 hours after administration was determined using the nonparametric Wilcoxon test (p<0.05, 1-tailed).

male mice = test: General behavior of male mice, visual observation using a checklist of behaviors; format: in vivo; settings: N = 3/group
Protocol: The effects of test compound on general behavior were evaluated by visual observation using a checklist of behaviors.

Number of Mice Affected: Decreased Open Field Activity (male mice; 40 mg/kg p.o., 1 h): 0 | Number of Mice Affected: Decreased Startle Reflex (male mice; 40 mg/kg p.o., 1 h): 0 | Number of Mice Affected: Extensor Limb Tone (hind limb) (male mice; 40 mg/kg p.o., 1 h): 0 | Number of Mice Affected: Impaired Horizontal Screen Performance (male mice; 40 mg/kg p.o., 1 h): 0 | Number of Mice Affected: Impaired Visual Placing Reflex (male mice; 40 mg/kg p.o., 1 h): 0 | Number of Mice Affected: Loss of Corneal Reflex (male mice; 40 mg/kg p.o., 1 h): 0 | Number of Mice Affected: Loss of Pinnal Reflex (male mice; 40 mg/kg p.o., 1 h): 0 | Number of Mice Affected: Loss of Righting Reflex (male mice; 40 mg/kg p.o., 1 h): 0 | Number of Mice Affected: Passive Response to Handling (male mice; 40 mg/kg p.o., 1 h): 0 | Number of Mice Affected: Reduced Skin Plasticity (male mice; 40 mg/kg p.o., 1 h): 0 | Number of Mice Affected: Soft Body Tone (male mice; 40 mg/kg p.o., 1 h): 0 | Number of Mice Affected: Tail Pinch Response, Absent (male mice; 40 mg/kg p.o., 1 h): 0 | Number of Mice Affected: Decreased Open Field Activity (male mice; 40 mg/kg p.o., 4 h): 0 | Number of Mice Affected: Decreased Startle Reflex (male mice; 40 mg/kg p.o., 4 h): 0 | Number of Mice Affected: Extensor Limb Tone (hind limb) (male mice; 40 mg/kg p.o., 4 h): 0 | Number of Mice Affected: Impaired Horizontal Screen Performance (male mice; 40 mg/kg p.o., 4 h): 0 | Number of Mice Affected: Impaired Visual Placing Reflex (male mice; 40 mg/kg p.o., 4 h): 0 | Number of Mice Affected: Loss of Corneal Reflex (male mice; 40 mg/kg p.o., 4 h): 0 | Number of Mice Affected: Loss of Pinnal Reflex (male mice; 40 mg/kg p.o., 4 h): 0 | Number of Mice Affected: Loss of Righting Reflex (male mice; 40 mg/kg p.o., 4 h): 0 | Number of Mice Affected: Passive Response to Handling (male mice; 40 mg/kg p.o., 4 h): 0 | Number of Mice Affected: Reduced Skin Plasticity (male mice; 40 mg/kg p.o., 4 h): 0 | Number of Mice Affected: Soft Body Tone (male mice; 40 mg/kg p.o., 4 h): 0 | Number of Mice Affected: Tail Pinch Response, Absent (male mice; 40 mg/kg p.o., 4 h): 0 | Number of Mice Affected: Decreased Open Field Activity (male mice; 100 mg/kg p.o., 1 h): 0 | Number of Mice Affected: Decreased Startle Reflex (male mice; 100 mg/kg p.o., 1 h): 0 | Number of Mice Affected: Extensor Limb Tone (hind limb) (male mice; 100 mg/kg p.o., 1 h): 0 | Number of Mice Affected: Impaired Horizontal Screen Performance (male mice; 100 mg/kg p.o., 1 h): 0 | Number of Mice Affected: Impaired Visual Placing Reflex (male mice; 100 mg/kg p.o., 1 h): 0 | Number of Mice Affected: Loss of Corneal Reflex (male mice; 100 mg/kg p.o., 1 h): 0 | Number of Mice Affected: Loss of Pinnal Reflex (male mice; 100 mg/kg p.o., 1 h): 0 | Number of Mice Affected: Loss of Righting Reflex (male mice; 100 mg/kg p.o., 1 h): 0 | Number of Mice Affected: Passive Response to Handling (male mice; 100 mg/kg p.o., 1 h): 0
Structure (SMILES): NC(=O)OC[C@@H](O)c1ccccc1Cl [COMPOUND #7]
Effect on performance (competitiveness) of dominant rats (dominant rats; 3 mg/kg b.i.d. p.o.): decreased the performance | Effect on performance (competitiveness) of dominant rats (dominant rats; 30 mg/kg b.i.d. p.o.): significantly increased the competitiveness | Effect on submissive rat behavior (competitiveness, time spent at feeder) (submissive rats; 3 mg/kg b.i.d. p.o.): did not have any effect | Effect on submissive rat behavior (competitiveness, time spent at feeder) (submissive rats; 30 mg/kg b.i.d. p.o., vs vehicle-treated): significantly increased competitiveness | Onset for initiation of fighting compared to vehicle-treated group ([1]; 20 mg/kg p.o., 4 hours after administration): statistically significantly shorter | Effect on isolation-induced aggressive behavior ([1]; 40 mg/kg p.o., 1 hour after administration, vs vehicle (p<0.05)): inhibited isolation-induced aggressive behavior | Effect on median duration of fighting compared to vehicle-treated groups ([1]; any dose group (10 to 40 mg/kg p.o.), 4 hours after administration): not affected | Number of Mice Affected: Locomotor Ataxia (male mice; 40 mg/kg p.o., 1 h): 0 | Number of Mice Affected: Locomotor Ataxia (male mice; 40 mg/kg p.o., 4 h): 0 | Number of Mice Affected: Locomotor Ataxia (male mice; 100 mg/kg p.o., 1 h): 0
